Results reported in US9981959B2, “Thiazolyl and oxazolyl urea, thiourea, guanidine and cyanoguanidine compounds as TrkA kinase inhibitors” (Array BioPharma Inc., priority 2012, dated 2018).

Legend:
Test in all cases: KinaseProfiler off-target kinase profiling
Type in all cases: biochemical
Conditions in all cases: 10 μM, ATP near Km
AKT3 = target: T1, AKT3 (Homo sapiens, UniProt Q9Y243)
T1 construct: purchased Millipore (KinaseProfiler service)
Protocol: (§1) A representative compound of the invention (Example 2) was tested for off-target kinase activity at a concentration of 10 μM by Millipore, Inc. in their KinaseProfiler™ service against all the kinases available in their full kinase panel. The compound was run in duplicate at a concentration of ATP near the Km for each individual kinase according to Millipore's specifications. The results are shown in Table B. Data are reported as percent of control (POC) and are the average of the two replicates.

BLK_m = target: T2, BLK_m (Mus musculus, UniProt P16277)
T2 construct: purchased Millipore (KinaseProfiler service)
Protocol: as §1

BrSK2 = target: T3, BrSK2 (Homo sapiens, UniProt Q8IWQ3)
T3 construct: purchased Millipore (KinaseProfiler service)
Protocol: as §1

CAMK1 = target: T4, CAMK1 (Homo sapiens, UniProt Q14012)
T4 construct: purchased Millipore (KinaseProfiler service)
Protocol: as §1

CDK2/cyclinE = target: T5, CDK2/cyclinE (Homo sapiens, UniProt P24941)
T5 construct: purchased Millipore, Inc. (KinaseProfiler service)
Protocol: as §1

CHK1 = target: T6, CHK1 (Homo sapiens, UniProt O14757)
T6 construct: purchased Millipore, Inc. (KinaseProfiler service)
Protocol: as §1

CLK2 = target: T7, CLK2 (Homo sapiens, UniProt P49760)
T7 construct: purchased Millipore, Inc. (KinaseProfiler service)
Protocol: as §1

DAPK3 = target: T8, DAPK3 (Homo sapiens, UniProt O43293)
T8 construct: purchased Millipore, Inc. (KinaseProfiler service)
Protocol: as §1

DCAMKL2 = target: T9, DCAMKL2 (Homo sapiens, UniProt Q8N568)
T9 construct: purchased Millipore, Inc. (KinaseProfiler service)
Protocol: as §1

EphA5 = target: T10, EphA5 (Homo sapiens, UniProt P54756)
T10 construct: purchased Millipore, Inc. (KinaseProfiler service)
Protocol: as §1

Fer = target: T11, Fer (Homo sapiens, UniProt P16591)
T11 construct: purchased Millipore, Inc. (KinaseProfiler service)
Protocol: as §1

Fgr = target: T12, Fgr (Homo sapiens, UniProt P09769)
T12 construct: purchased Millipore, Inc. (KinaseProfiler service)
Protocol: as §1

Flt1 = target: T13, Flt1 (Homo sapiens, UniProt P17948)
T13 construct: purchased Millipore, Inc. (KinaseProfiler service)
Protocol: as §1

GRK6 = target: T14, GRK6 (Homo sapiens, UniProt P43250)
T14 construct: purchased Millipore, Inc. (KinaseProfiler service)
Protocol: as §1

GSK3alpha = target: T15, GSK3alpha (Homo sapiens, UniProt P49840)
T15 construct: purchased Millipore, Inc. (KinaseProfiler service)
Protocol: as §1

JAK3 = target: T16, JAK3 (Homo sapiens, UniProt P52333)
T16 construct: purchased Millipore, Inc. (KinaseProfiler service)
Protocol: as §1

Lck = target: T17, Lck (Homo sapiens, UniProt P06239)
T17 construct: purchased Millipore, Inc. (KinaseProfiler service)
Protocol: as §1

Lyn = target: T18, Lyn (Homo sapiens, UniProt P07948)
T18 construct: purchased Millipore, Inc. (KinaseProfiler service)
Protocol: as §1

MAP4K2 = target: T19, MAP4K2 (Homo sapiens, UniProt Q12851)
T19 construct: purchased Millipore, Inc. (KinaseProfiler service)
Protocol: as §1

MAPKAP-K3 = target: T20, MAPKAP-K3 (Homo sapiens, UniProt Q16644)
T20 construct: purchased Millipore, Inc. (KinaseProfiler service)
Protocol: as §1

MAPKAP-K5 = target: T21, MAPKAP-K5 (Homo sapiens, UniProt Q8IW41)
T21 construct: purchased Millipore, Inc. (KinaseProfiler service)
Protocol: as §1

MLK1 = target: T22, MLK1 (Homo sapiens, UniProt P80192)
T22 construct: purchased Millipore, Inc. (KinaseProfiler service)
Protocol: as §1

MST1 = target: T23, MST1 (Homo sapiens, UniProt Q13043)
T23 construct: purchased Millipore, Inc. (KinaseProfiler service)
Protocol: as §1

NEK3 = target: T24, NEK3 (Homo sapiens, UniProt P51956)
T24 construct: purchased Millipore, Inc. (KinaseProfiler service)
Protocol: as §1

PAK4 = target: T25, PAK4 (Homo sapiens, UniProt O96013)
T25 construct: purchased Millipore, Inc. (KinaseProfiler service)
Protocol: as §1

PDGFRbeta = target: T26, PDGFRbeta (Homo sapiens, UniProt P09619)
T26 construct: purchased Millipore, Inc. (KinaseProfiler service)
Protocol: as §1

PKCalpha = target: T27, PKCalpha (Homo sapiens, UniProt P17252)
T27 construct: purchased Millipore, Inc. (KinaseProfiler service)
Protocol: as §1

PKCepsilon = target: T28, PKCepsilon (Homo sapiens, UniProt Q02156)
T28 construct: purchased Millipore, Inc. (KinaseProfiler service)
Protocol: as §1

PKCgamma = target: T29, PKCgamma (Homo sapiens, UniProt P05129)
T29 construct: purchased Millipore, Inc. (KinaseProfiler service)
Protocol: as §1

PKCtheta = target: T30, PKCtheta (Homo sapiens, UniProt Q04759)
T30 construct: purchased Millipore, Inc. (KinaseProfiler service)
Protocol: as §1

Plk1 = target: T31, Plk1 (Homo sapiens, UniProt P53350)
T31 construct: purchased Millipore, Inc. (KinaseProfiler service)
Protocol: as §1

ROCK-I = target: T32, ROCK-I (Homo sapiens, UniProt Q13464)
T32 construct: purchased Millipore, Inc. (KinaseProfiler service)
Protocol: as §1

Rsk1 = target: T33, Rsk1 (Homo sapiens, UniProt Q15418)
T33 construct: purchased Millipore, Inc. (KinaseProfiler service)
Protocol: as §1

SRC = target: T34, SRC (Homo sapiens, UniProt P12931)
T34 construct: purchased Millipore, Inc. (KinaseProfiler service)
Protocol: as §1

Syk = target: T35, Syk (Homo sapiens, UniProt P43405)
T35 construct: purchased Millipore, Inc. (KinaseProfiler service)
Protocol: as §1

TAK1 = target: T36, TAK1 (Homo sapiens, UniProt O43318)
T36 construct: purchased Millipore, Inc. (KinaseProfiler service)
Protocol: as §1

TBK1 = target: T37, TBK1 (Homo sapiens, UniProt Q9UHD2)
T37 construct: purchased Millipore, Inc. (KinaseProfiler service)
Protocol: as §1

ULK2 = target: T38, ULK2 (Homo sapiens, UniProt Q8IYT8)
T38 construct: purchased Millipore, Inc. (KinaseProfiler service)
Protocol: as §1

ZAP-70 = target: T39, ZAP-70 (Homo sapiens, UniProt P43403)
T39 construct: purchased Millipore, Inc. (KinaseProfiler service)
Protocol: as §1

mTOR/FKBP12 = target: T40, mTOR/FKBP12 (Homo sapiens, UniProt P42345)
T40 construct: purchased Millipore, Inc. (KinaseProfiler service)
Protocol: as §1

p38gamma = target: T41, p38gamma (Homo sapiens, UniProt P53778)
T41 construct: purchased Millipore, Inc. (KinaseProfiler service)
Protocol: as §1

T28 sequence (Q02156 whole entry): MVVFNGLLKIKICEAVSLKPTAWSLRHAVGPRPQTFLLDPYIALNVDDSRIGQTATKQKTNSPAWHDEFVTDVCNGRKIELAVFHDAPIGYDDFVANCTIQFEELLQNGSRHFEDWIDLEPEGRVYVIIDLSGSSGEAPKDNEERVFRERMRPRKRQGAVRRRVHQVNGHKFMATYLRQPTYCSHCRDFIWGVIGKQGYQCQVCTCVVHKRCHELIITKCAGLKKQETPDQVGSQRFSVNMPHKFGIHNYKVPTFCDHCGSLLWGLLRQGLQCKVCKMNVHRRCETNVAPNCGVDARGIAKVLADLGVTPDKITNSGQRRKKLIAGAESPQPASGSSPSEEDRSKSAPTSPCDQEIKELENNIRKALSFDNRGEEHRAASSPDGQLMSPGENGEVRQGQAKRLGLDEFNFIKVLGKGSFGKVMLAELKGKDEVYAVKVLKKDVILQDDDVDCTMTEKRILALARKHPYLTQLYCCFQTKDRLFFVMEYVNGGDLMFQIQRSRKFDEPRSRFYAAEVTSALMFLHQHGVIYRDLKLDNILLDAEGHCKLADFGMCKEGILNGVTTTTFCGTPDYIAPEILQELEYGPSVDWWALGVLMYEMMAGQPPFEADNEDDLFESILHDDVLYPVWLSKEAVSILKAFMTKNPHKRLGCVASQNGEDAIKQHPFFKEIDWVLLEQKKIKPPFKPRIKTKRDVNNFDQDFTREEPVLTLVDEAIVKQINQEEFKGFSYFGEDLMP
T23 sequence (Q13043 whole entry): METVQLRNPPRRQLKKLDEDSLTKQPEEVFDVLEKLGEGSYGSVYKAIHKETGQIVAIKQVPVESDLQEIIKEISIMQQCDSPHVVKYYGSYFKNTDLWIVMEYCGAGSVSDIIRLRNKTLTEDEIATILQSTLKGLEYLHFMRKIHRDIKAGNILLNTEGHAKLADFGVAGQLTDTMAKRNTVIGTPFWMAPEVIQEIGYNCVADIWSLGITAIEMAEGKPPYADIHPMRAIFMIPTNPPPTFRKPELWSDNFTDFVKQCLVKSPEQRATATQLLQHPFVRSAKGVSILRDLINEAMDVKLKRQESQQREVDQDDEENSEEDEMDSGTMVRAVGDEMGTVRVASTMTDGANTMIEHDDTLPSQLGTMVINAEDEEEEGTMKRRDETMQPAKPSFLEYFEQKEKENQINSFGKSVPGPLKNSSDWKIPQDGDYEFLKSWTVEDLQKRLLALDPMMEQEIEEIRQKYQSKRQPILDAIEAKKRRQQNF
T34 sequence (P12931 whole entry): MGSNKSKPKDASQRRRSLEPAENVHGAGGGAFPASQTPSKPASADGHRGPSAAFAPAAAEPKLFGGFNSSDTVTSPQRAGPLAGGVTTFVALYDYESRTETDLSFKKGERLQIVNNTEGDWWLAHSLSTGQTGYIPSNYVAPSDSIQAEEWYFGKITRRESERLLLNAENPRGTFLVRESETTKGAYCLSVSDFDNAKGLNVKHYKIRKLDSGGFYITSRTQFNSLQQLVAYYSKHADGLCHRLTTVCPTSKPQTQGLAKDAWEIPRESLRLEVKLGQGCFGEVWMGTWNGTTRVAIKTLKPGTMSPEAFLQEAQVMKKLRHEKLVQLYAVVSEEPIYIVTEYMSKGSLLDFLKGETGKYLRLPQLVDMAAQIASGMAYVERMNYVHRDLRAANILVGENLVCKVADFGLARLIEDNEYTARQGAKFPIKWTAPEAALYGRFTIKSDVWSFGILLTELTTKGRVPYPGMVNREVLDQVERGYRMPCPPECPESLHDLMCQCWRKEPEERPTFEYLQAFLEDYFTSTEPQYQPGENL
T32 sequence (Q13464 whole entry): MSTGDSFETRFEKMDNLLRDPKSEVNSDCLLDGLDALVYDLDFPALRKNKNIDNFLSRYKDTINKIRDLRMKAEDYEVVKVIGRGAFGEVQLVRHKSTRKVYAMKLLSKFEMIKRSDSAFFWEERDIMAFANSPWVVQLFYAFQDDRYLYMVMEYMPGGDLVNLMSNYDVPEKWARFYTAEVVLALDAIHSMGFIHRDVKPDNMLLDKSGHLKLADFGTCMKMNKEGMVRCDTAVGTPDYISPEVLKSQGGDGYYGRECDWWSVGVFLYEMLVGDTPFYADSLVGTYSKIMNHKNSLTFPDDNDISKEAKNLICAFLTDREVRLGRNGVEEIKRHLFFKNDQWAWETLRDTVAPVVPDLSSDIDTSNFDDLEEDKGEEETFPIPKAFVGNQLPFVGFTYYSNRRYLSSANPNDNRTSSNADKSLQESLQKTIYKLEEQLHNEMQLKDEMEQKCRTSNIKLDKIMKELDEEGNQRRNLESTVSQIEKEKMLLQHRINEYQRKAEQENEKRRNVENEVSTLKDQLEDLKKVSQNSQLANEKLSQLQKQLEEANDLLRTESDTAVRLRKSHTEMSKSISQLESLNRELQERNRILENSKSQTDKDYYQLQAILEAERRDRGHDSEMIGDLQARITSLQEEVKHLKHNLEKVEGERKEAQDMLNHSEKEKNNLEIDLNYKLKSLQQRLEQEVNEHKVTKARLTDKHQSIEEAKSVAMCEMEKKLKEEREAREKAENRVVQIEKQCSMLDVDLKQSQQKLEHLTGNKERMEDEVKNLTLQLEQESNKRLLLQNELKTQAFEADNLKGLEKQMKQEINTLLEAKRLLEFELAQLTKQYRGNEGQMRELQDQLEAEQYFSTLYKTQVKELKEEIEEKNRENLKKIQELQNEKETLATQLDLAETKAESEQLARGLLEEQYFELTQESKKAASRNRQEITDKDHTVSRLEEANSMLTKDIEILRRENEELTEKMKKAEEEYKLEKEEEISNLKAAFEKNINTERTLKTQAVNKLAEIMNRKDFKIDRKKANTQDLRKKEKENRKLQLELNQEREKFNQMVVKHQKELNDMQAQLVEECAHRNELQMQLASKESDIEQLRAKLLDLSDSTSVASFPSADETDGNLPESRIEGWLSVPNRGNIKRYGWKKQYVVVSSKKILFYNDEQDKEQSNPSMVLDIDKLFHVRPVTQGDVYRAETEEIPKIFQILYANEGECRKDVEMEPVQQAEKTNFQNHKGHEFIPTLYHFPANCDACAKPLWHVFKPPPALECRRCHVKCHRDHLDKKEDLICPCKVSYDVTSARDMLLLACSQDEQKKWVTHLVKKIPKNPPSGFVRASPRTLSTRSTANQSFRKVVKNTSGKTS
T22 sequence (P80192 whole entry): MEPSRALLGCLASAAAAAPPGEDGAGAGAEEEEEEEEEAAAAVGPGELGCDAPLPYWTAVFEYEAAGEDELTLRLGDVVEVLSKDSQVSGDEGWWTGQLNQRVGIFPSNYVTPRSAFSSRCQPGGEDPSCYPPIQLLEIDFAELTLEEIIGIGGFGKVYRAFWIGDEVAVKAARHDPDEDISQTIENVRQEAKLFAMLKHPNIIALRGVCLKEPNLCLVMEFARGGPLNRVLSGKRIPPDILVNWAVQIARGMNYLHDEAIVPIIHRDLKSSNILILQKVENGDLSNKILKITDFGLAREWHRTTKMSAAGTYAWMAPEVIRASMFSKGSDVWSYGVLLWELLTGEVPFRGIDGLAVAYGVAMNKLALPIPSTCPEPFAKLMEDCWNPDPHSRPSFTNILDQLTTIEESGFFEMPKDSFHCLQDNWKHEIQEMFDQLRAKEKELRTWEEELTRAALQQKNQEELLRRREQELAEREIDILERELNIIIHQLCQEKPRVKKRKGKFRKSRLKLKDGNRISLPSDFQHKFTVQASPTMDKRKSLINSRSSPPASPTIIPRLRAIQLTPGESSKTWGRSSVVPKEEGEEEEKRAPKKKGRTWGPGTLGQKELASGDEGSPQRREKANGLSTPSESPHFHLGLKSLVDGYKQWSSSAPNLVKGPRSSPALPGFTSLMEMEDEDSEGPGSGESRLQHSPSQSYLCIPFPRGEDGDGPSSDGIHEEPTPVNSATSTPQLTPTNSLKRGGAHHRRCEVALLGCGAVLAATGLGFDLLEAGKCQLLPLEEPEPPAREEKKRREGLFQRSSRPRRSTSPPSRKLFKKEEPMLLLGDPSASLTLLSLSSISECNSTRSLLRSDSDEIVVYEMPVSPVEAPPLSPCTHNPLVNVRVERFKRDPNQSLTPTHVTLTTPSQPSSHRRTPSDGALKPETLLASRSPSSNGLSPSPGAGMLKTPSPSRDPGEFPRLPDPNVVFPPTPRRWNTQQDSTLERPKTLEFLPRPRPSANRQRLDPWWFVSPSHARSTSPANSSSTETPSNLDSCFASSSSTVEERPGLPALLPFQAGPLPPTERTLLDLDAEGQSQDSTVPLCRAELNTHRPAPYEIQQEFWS
T30 sequence (Q04759 whole entry): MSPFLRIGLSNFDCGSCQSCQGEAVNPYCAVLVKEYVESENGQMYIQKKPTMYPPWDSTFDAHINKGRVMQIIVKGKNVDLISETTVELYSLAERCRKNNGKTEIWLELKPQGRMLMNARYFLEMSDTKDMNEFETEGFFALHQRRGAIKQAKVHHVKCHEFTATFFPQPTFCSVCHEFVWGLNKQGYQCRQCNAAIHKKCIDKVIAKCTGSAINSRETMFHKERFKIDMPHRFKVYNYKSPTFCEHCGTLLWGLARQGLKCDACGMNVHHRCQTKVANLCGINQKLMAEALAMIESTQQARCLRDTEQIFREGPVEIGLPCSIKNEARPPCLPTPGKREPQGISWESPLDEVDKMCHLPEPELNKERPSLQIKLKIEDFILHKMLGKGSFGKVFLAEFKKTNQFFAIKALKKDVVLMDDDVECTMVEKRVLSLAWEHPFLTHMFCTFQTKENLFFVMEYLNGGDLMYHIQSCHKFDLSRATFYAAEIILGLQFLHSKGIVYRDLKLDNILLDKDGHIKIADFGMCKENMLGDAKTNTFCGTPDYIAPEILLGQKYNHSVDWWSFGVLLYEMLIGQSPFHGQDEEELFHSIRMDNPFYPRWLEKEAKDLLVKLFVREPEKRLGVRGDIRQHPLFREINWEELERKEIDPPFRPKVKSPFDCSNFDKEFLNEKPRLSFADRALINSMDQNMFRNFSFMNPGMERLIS

- Avg POC (AKT3): 116 POC
- Avg POC (BLK_m): 112 POC
- Avg POC (BrSK2): 116.5 POC
- Avg POC (CAMK1): 95.5 POC
- Avg POC (CDK2/cyclinE): 100 POC
- Avg POC (CHK1): 126.5 POC
- Avg POC (CLK2): 118 POC
- Avg POC (DAPK3): 120 POC
- Avg POC (DCAMKL2): 210.5 POC
- Avg POC (EphA5): 118.5 POC
- Avg POC (Fer): 78.5 POC
- Avg POC (Fgr): 128 POC
- Avg POC (Flt1): 104 POC
- Avg POC (GRK6): 98.5 POC
- Avg POC (GSK3alpha): 147.5 POC
- Avg POC (JAK3): 113 POC
- Avg POC (Lck): 103 POC
- Avg POC (Lyn): 103.5 POC
- Avg POC (MAP4K2): 121.5 POC
- Avg POC (MAPKAP-K3): 116 POC
- Avg POC (MAPKAP-K5): 95.5 POC
- Avg POC (MLK1): 95.5 POC
- Avg POC (MST1): 100.5 POC
- Avg POC (NEK3): 108.5 POC
- Avg POC (PAK4): 103.5 POC
- Avg POC (PDGFRbeta): 162 POC
- Avg POC (PKCalpha): 102.5 POC
- Avg POC (PKCepsilon): 102 POC
- Avg POC (PKCgamma): 90 POC
- Avg POC (PKCtheta): 130 POC
- Avg POC (Plk1): 103.5 POC
- Avg POC (ROCK-I): 113 POC
- Avg POC (Rsk1): 123.5 POC
- Avg POC (SRC): 110.5 POC
- Avg POC (Syk): 127.5 POC
- Avg POC (TAK1): 95.5 POC
- Avg POC (TBK1): 100.5 POC
- Avg POC (ULK2): 91 POC
- Avg POC (ZAP-70): 133 POC
- Avg POC (mTOR/FKBP12): 103 POC
- Avg POC (p38gamma): 105 POC
SMILES: Cc1c(-c2cnn(C)c2)nn(-c2ccccc2)c1NC(=O)Nc1sc(C(F)(F)F)nc1-c1ccccc1 [Example 2, 1-(1′,4-dimethyl-1-phenyl-1H,1′H-[3,4′-bipyrazol]-5-yl)-3-(4-phenyl-2-(trifluoromethyl)thiazol-5-yl)urea]
